From US6774211B1, “Peptide antiangiogenic drugs” (Abbott Laboratories, priority 1998, dated 2004)
Where a SMILES comes first, the peptide text is derived from it. [ ]: non-standard residue; d: D form. Nva = CCC[C@H](N)C(=O)O; Sar = CNCC(=O)O

What follows are compounds tested on Human Microvascular Endothelial Cells (HMVEC) (assay: Human microvascular endothelial cell (HMVEC) migration assay, modified Boyden chamber). Conditions: 10 nM; migration stimulated with 15 ng/ml bFGF/VEGF; compared to positive control.
Format: cell-based
Description: The human microvascular endothelial (HMVEC) migration assay was run according to the procedure of S. S. Tolsma, O. V. Volpert, D. J. Good, W. F. Frazier, P. J. Polverini and N. Bouck, J. Cell Biol. 122, 497-511 (1993).
The HMVEC migration assay was carried out using Human Microvascular Endothelial Cells-Dermal (single donor) and Human Microvascular Endothelial Cells, (neonatal). The BCE or HMVEC cells were starved overnight in DME containing 0.1% bovine serum albumin (BSA). Cells were then harvested with trypsin and resuspended in DME with 0.1% BSA at a concentration of 1.5×10^6 cells per ml. Cells were added to the bottom of a 48 well modified Boyden chamber (Nucleopore Corporation, Cabin John, Md.). The chamber was assembled and inverted, and cells were allowed to attach for 2 hours at 37° C. to polycarbonate chemotaxis membranes (5 μm pore size) that had been soaked in 0.1% gelatin overnight and dried. The chamber was then reinverted, and test substances (total volume of 50 μl), including activators, 15 ng/ml bFGF/VEGF, were added to the wells of the upper chamber. The apparatus was incubated for 4 hours at 37° C. Membranes were recovered, fixed and stained (Diff Quick, Fisher Scientific) and the number of cells that had migrated to the upper chamber per […] high power fields counted. Background migration to DME+0.1 BSA was subtracted and the data reported as the number of cells migrated per 10 high power fields (400×) or, when results from multiple experiments were combined, as the percent inhibition of migration compared to a positive control.

Compound	% Inhib. @ 10 nM [%]
CCC[C@H](NC(=O)[C@@H](NC(=O)[C@H](NC(=O)[C@@H](NC(=O)CNC(=O)CN(C)C(C)=O)C(C)C)[C@H](C)CC)[C@@H](C)O)C(=O)N[C@H](C(=O)N[C@@H](CCCNC(=N)N)C(=O)N1CCC[C@H]1C(=O)NCC)[C@@H](C)CC [Example 1, N-Ac-Sar-Gly-Val-D-Ile-Thr-Nva-Ile-Arg-ProNHCH2CH3] (Ac-[Sar]GV[dI]T[Nva]IRP-NHEt)	76.9
N-(Tetrahydro-2-furoyl)-Sar-Gly-Val-D-Ile-Thr-Nva-Ile-Arg-ProNHCH2CH3 [Example 61]	83.7
N-Ac-Sar-Gly-Val-D-Cha-Thr-Nva-Ile-Arg-ProNHCH2CH3 [Example 28]	47.0
N-Ac-Sar-Gly-Val-D-Ile-Thr-Gln-Ile-Arg-ProNHCH2CH3 [Example 43]	94.1
N-Ac-Sar-Gly-Val-D-Ile-Thr-Nva-Ile-Arg-ProNHethyl-(1-pyrrolidine) [Example 5]	87.2
N-Ac-Sar-Gly-Val-D-Val-Thr-Nva-Ile-Arg-ProNHCH2CH3 [Example 18]	51.4

Same assay, conditions: 20 nM; migration stimulated with 15 ng/ml bFGF/VEGF; compared to positive control

Compound	% Inhib. @ 20 nM [%]
CCC[C@H](NC(=O)[C@@H](NC(=O)[C@H](NC(=O)[C@@H](NC(=O)CNC(=O)CN(C)C(C)=O)C(C)C)[C@H](C)CC)[C@@H](C)O)C(=O)N[C@H](C(=O)N[C@@H](CCCNC(=N)N)C(=O)N1CCC[C@H]1C(=O)NCC)[C@@H](C)CC [Example 1, N-Ac-Sar-Gly-Val-D-Ile-Thr-Nva-Ile-Arg-ProNHCH2CH3] (Ac-[Sar]GV[dI]T[Nva]IRP-NHEt)	87.3
H-Sar-Gly-Val-D-Ile-Thr-Nva-Ile-Arg-ProNHCH2CH3 [Example 66]	76.1
N-(2-Furoyl)-Sar-Gly-Val-D-Ile-Thr-Nva-Ile-Arg-ProNHCH2CH3 [Example 59]	82.3
N-(2-Me-Nicotinyl)-Sar-Gly-Val-D-Ile-Thr-Nva-Ile-Arg-ProNHCH2CH3 [Example 53]	76.7
N-Ac-Sar-Gly-Val-D-Ile-Thr-Ala-Ile-Arg-ProNHCH2CH3 [Example 46]	77.5
N-Ac-Sar-Gly-Val-D-Ile-Thr-Allylgly-Ile-Arg-ProNHCH2CH3 [Example 49]	83.4
N-Ac-Sar-Gly-Val-D-Ile-Thr-DNva-Ile-Arg-ProNHCH2CH3 [Example 42]	60.2
N-Ac-Sar-Gly-Val-D-Ile-Thr-Met-Ile-Arg-ProNHCH2CH3 (Ac-[Sar]GV[dI]TMIRP-NHEt; SMILES CCNC(=O)[C@@H]1CCCN1C(=O)[C@H](CCCNC(=N)N)NC(=O)[C@@H](NC(=O)[C@H](CCSC)NC(=O)[C@@H](NC(=O)[C@H](NC(=O)[C@@H](NC(=O)CNC(=O)CN(C)C(C)=O)C(C)C)[C@H](C)CC)[C@@H](C)O)[C@@H](C)CC) [Example 51]	67.0
N-Ac-Sar-Gly-Val-D-Ile-Thr-Nva-Ile-Arg-ProNHCH2CH2OCH3 [Example 11]	70.4
N-Ac-Sar-Gly-Val-D-Ile-Thr-Nva-Ile-Arg-ProNHCH(CH3)2 [Example 4]	71.3
N-Ac-Sar-Gly-Val-D-Ile-Thr-Val-Ile-Arg-ProNHCH2CH3 (Ac-[Sar]GV[dI]TVIRP-NHEt) [Example 47]	69.7
N-Butyryl-Sar-Gly-Val-D-Ile-Thr-Nva-Ile-Arg-ProNHCH2CH3 [Example 60]	75.3
N-MeOacetyl-Sar-Gly-Val-D-Ile-Thr-Nva-Ile-Arg-ProNHCH2CH3 [Example 57]	56.6
N-Nicotinyl-Sar-Gly-Val-D-Ile-Thr-Nva-Ile-Arg-ProNHCH2CH3 [Example 55]	59.2
N-Propionyl-Sar-Gly-Val-D-Ile-Thr-Nva-Ile-Arg-ProNHCH2CH3 [Example 56]	49.9
N-Shikimyl-Sar-Gly-Val-D-Ile-Thr-Nva-Ile-Arg-ProNHCH2CH3 [Example 58]	68.8
N-Succinyl-Sar-Gly-Val-D-Ile-Thr-Nva-Ile-Arg-ProNHCH2CH3 [Example 54]	81.3
